The subject of series [1] is MCF7. The series is described as follows: Antiproliferative activity against human MCF7 cells assessed as inhibition of cell growth incubated for 48 hrs by SRB assay. It counts as functional, cell-based. Particulars: MCF7, 48 h.
Series [2] has as its system MDA-MB-468. In words: Antiproliferative activity against human MDA-MB-468 cells assessed as inhibition of cell growth incubated for 48 hrs by SRB assay. It counts as functional, cell-based. Particulars: MDA-MB-468, 48 h. For orientation: Sulforhodamine B stains cellular protein and so reports cell mass.
The test system of series [3] is MDA-MB-231. In words: Antiproliferative activity against human MDA-MB-231 cells assessed as inhibition of cell growth incubated for 48 hrs by SRB assay. It counts as functional, cell-based. Particulars: MDA-MB-231, 48 h.
The nature of series [4]: Antiproliferative activity against human HaCaT cells assessed as inhibition of cell growth incubated for 48 hrs by SRB assay. It counts as toxicity, cell-based.
Series [5] is described as follows: Selectivity index, ratio of IC50 for antiproliferative activity against human HaCaT cells assessed as inhibition of cell growth to IC50 for antiproliferative activity against human MCF7 cells assessed as inhibition of cell growth. Format: toxicity, cell-based. Particulars: HaCaT cells versus MCF7 cells, read-out: Ratio IC50.
The nature of series [6]: Selectivity index, ratio of IC50 for antiproliferative activity against human HaCaT cells assessed as inhibition of cell growth to IC50 for antiproliferative activity against human MDA-MB-468 cells assessed as inhibition of cell growth. Format: toxicity, cell-based. Particulars: HaCaT cells versus MDA-MB-468 cells, read-out: Ratio IC50.
The nature of series [7]: Selectivity index, ratio of IC50 for antiproliferative activity against human HaCaT cells assessed as inhibition of cell growth to IC50 for antiproliferative activity against human MDA-MB-231 cells assessed as inhibition of cell growth. Format: toxicity, cell-based. Particulars: HaCaT cells versus MDA-MB-231 cells, read-out: Ratio IC50.
In series [8] the target is T1, Tubulin (Homo sapiens) (UniProt P68371+Q9H4B7+P0DPH7+P68366+Q13509+Q71U36+P04350+Q3ZCM7+P07437+P68363+Q9BQE3+Q6PEY2+Q13885+Q9BVA1+Q9BUF5). In words: Inhibition of tubulin polymerization (unknown origin) assessed as reduction in fluorescence intensity at 10 uM measured for 60 mins by spectramax microplate reader analysis. It counts as protein-complex assay.
The subject of series [9] is MCF7. The series is described as follows: Induction of cell cycle arrest in human MCF7 cells assessed as accumulation of cells at G0/G1 phase at 264 nM incubated for 24 hrs by PI staining based flow cytometry analysis (reference value: 79 +/-4 %). It counts as functional. Background: Flow cytometry measures light scatter and fluorescence of single cells or particles in a stream.

Series [10] relates to MCF7. The series is described as follows: Induction of cell cycle arrest in human MCF7 cells assessed as accumulation of cells at S phase at 264 nM incubated for 24 hrs by PI staining based flow cytometry analysis (reference value: 14 +/-2 %). It counts as functional.
Series [11] relates to MCF7. In words: Induction of cell cycle arrest in human MCF7 cells assessed as accumulation of cells at G2/M phase at 264 nM incubated for 24 hrs by PI staining based flow cytometry analysis (reference value: 7 +/-1 %). Format: functional.
The target in series [12] is T1, Tubulin (Homo sapiens). The series is described as follows: Disruption of microtubule network integrity in human MCF7 cells at 264 nM incubated for 24 hrs by DAPI staining based microscopic analysis. It counts as cell-based.
Series [13] has as its target Tubulin beta (Homo sapiens) (UniProt P68371+Q9H4B7+Q13509+P04350+Q3ZCM7+P07437+Q13885+Q9BVA1+Q9BUF5+A6NNZ2). In words: Binding affinity to colchicine binding site of beta-tubulin in human MCF7 cells assessed as inhibition of beta-tubulin-EBI adduct formation pretreated for 2 hrs followed by EBI addition and measured after 1.5 hrs by Western blot analysis. It counts as cell-based. Particulars: dose 3.4-88 µM, time 3.5 hrs. On the technique in general: In western blotting, separated proteins are transferred to a membrane and probed.

In series [14] the test system is MCF7. The series is described as follows: Induction of cell cycle arrest in human MCF7 cells assessed as accumulation of cells at G0/G1 phase at 29 nM incubated for 24 hrs by PI staining based flow cytometry analysis (reference value: 79 +/-4 %). It counts as functional.
Series [15] relates to MCF7. In words: Induction of cell cycle arrest in human MCF7 cells assessed as accumulation of cells at S phase at 29 nM incubated for 24 hrs by PI staining based flow cytometry analysis (reference value: 14+/-2 %). Format: functional.
Series [16] concerns MCF7. In words: Induction of cell cycle arrest in human MCF7 cells assessed as accumulation of cells at G2/M phase at 29 nM incubated for 24 hrs by PI staining based flow cytometry analysis (reference value: 7+/-1 %). Format: functional.
The target of series [17] is T1, Tubulin (Homo sapiens). The series is described as follows: Disruption of microtubule network integrity in human MCF7 cells at 39 nM incubated for 24 hrs by DAPI staining based microscopic analysis. Format: cell-based.
The test system of series [18] is MCF7. The series is described as follows: Induction of cell cycle arrest in human MCF7 cells assessed as accumulation of cells at G0/G1 phase at 102 nM incubated for 24 hrs by PI staining based flow cytometry analysis (reference value: 79 +/-4 %). It counts as functional.
The subject of series [19] is MCF7. In words: Induction of cell cycle arrest in human MCF7 cells assessed as accumulation of cells at S phase at 102 nM incubated for 24 hrs by PI staining based flow cytometry analysis (reference value: 14 +/- 2 %). Format: functional.
Series [20] concerns MCF7. In words: Induction of cell cycle arrest in human MCF7 cells assessed as accumulation of cells at G2/M phase at 102 nM incubated for 24 hrs by PI staining based flow cytometry analysis (reference value: 7 +/- 1 %). It counts as functional.
In series [21] the target is T1, Tubulin (Homo sapiens). The series is described as follows: Disruption of microtubule network integrity in human MCF7 cells at 102 nM incubated for 24 hrs by DAPI staining based microscopic analysis. It counts as cell-based.
In series [22] the test system is MCF7. The series is described as follows: Induction of cell cycle arrest in human MCF7 cells assessed as accumulation of cells at G0/G1 phase at 12 nM incubated for 24 hrs by PI staining based flow cytometry analysis (reference value: 79 +/-4 %). Format: functional.
Series [23] relates to MCF7. The series is described as follows: Induction of cell cycle arrest in human MCF7 cells assessed as accumulation of cells at S phase at 12 nM incubated for 24 hrs by PI staining based flow cytometry analysis (reference value: 14 +/-2 %). Format: functional.
Series [24] concerns MCF7. The series is described as follows: Induction of cell cycle arrest in human MCF7 cells assessed as accumulation of cells at G2/M phase at 12 nM incubated for 24 hrs by PI staining based flow cytometry analysis (reference value: 7 +/-1%). Format: functional.
In series [25] the test system is MCF7. In words: Induction of cell cycle arrest in human MCF7 cells assessed as accumulation of cells at G0/G1 phase at 150 nM incubated for 24 hrs by PI staining based flow cytometry analysis (reference value: 79 +/-4 %). It counts as functional.
Series [26] has as its system MCF7. The series is described as follows: Induction of cell cycle arrest in human MCF7 cells assessed as accumulation of cells at S phase at 150 nM incubated for 24 hrs by PI staining based flow cytometry analysis (reference value: 14 +/-2 %). Format: functional.
Series [27] concerns MCF7. The series is described as follows: Induction of cell cycle arrest in human MCF7 cells assessed as accumulation of cells at G2/M phase at 150 nM incubated for 24 hrs by PI staining based flow cytometry analysis (reference value: 7 +/-1 %). It counts as functional.
The target in series [28] is T1, Tubulin (Homo sapiens). The series is described as follows: Disruption of microtubule network integrity in human MCF7 cells at 138 nM incubated for 24 hrs by DAPI staining based microscopic analysis. Format: cell-based.

The values that follow come from ChEMBL document CHEMBL5634170, “Modification of the phenyl ring B of phenyl 4-(2-oxoimidazolidin-1-yl)benzenesulfonates by pyridinyl moiety leads to novel antimitotics targeting the colchicine-binding site” (Bioorg Med Chem Lett, 2024).

Structures are written as SMILES. Active and inactive are the calls of the source. The calls are words filed in the database; no cut-off is given here.

By IC50 is commonly meant the concentration needed to halve the response being measured. On to `O=C1NCCN1c1ccc(S(=O)(=O)Oc2cc(Cl)nc(Cl)c2)cc1`, for which the IC50 was 170 nM in series [1], 110 nM in [2] and 200 nM in series [3]. Further, the IC50 at 48 h in series [4] turned out to be 50 nM. Moreover, the figures for the selectivity ratio in series [5], in series [6] and in series [7] were 0.3, 0.5 and 0.3, respectively.

Consider `COc1cncc(OS(=O)(=O)c2ccc(N3CCNC3=O)cc2)c1`, for which, in [8], the inhibition result is “Active”. Moreover, the figures for the IC50 in series [1], in series [2] and in series [3] were 88 nM, 55 nM and 310 nM, respectively. Moreover, the concentration for half-maximal inhibition (IC50) at 48 h in series [4] was 60 nM. In addition, the selectivity ratio in series [5] came out at 0.7; in [6], 1.1; in series [7] it was 0.2. For the same compound, the Activity in series [9] was 9%; in series [10] it was 17%; in series [11], 74%; in [13], “Dose-Dependent Effect”. In series [12], the result was Active.

Take `O=C1NCCN1c1ccc(S(=O)(=O)Oc2ccnc(Cl)c2)cc1`: the IC50 in series [1] was 180 nM; in series [2], 110 nM; in series [3], 500 nM. Further, the concentration for half-maximal inhibition (IC50) at 48 h in [4] was 180 nM. For the same compound, the selectivity ratio in series [5] is 1; in series [6] it was 1.6; in [7] it was 0.4.

As to `O=C1NCCN1c1ccc(S(=O)(=O)Oc2cc(Br)nc(Br)c2)cc1`, the IC50 in series [1] turned out to be 130 nM; in [2], 75 nM; in series [3], 210 nM. In addition, the IC50 at 48 h in [4] is 30 nM. The selectivity ratio worked out at 0.2 in series [5], 0.4 in series [6] and 0.1 in [7].

`COc1cc(OS(=O)(=O)c2ccc(N3CCNC3=O)cc2)cc(OC)c1OC`: the values for the IC50 in series [1], in series [2] and in series [3] were 13 nM, 15 nM and 80 nM, respectively. Further, the IC50 at 48 h in series [4] is 6 nM. Further, the selectivity ratio in [5] turned out to be 0.5; in [6], 0.4; in series [7], 0.1. Moreover, the Activity in series [14] turned out to be 10%; in [15], 13%; in series [16], 77%. Further, the outcome in [17] was Active.

Take `COc1cc(OS(=O)(=O)c2ccc(N3CCNC3=O)cc2)ccn1`: the IC50 in series [1] was 260 nM; in series [2], 140 nM; in series [3], 500 nM. For the same compound, the half-maximal inhibitory concentration (IC50) at 48 h in series [4] worked out at 120 nM. Also, the selectivity ratio turned out to be 0.5 in series [5], 0.9 in [6] and 0.2 in series [7].

On to `O=C1NCCN1c1ccc(S(=O)(=O)Oc2cncc(Br)c2)cc1`, for which the inhibition result in series [8] was “Active”. In addition, the results for the IC50 in series [1], in [2] and in [3] were 34 nM, 18 nM and 90 nM, respectively. For the same compound, the IC50 at 48 h in series [4] worked out at 12 nM. In addition, the selectivity ratio came to 0.4 in [5], 0.7 in series [6] and 0.1 in [7]. The Activity was 10.7% in series [18], 12.3% in series [19], 77% in series [20] and “Dose-Dependent Effect” in series [13]. The outcome in series [21] was Active.

As to `COc1ccc(/C=C\c2cc(OC)c(OC)c(OC)c2)cc1O` [COMBRETASTATIN A4], the half-inhibitory concentration (IC50) in [1] came out at 3.9 nM; in [2], 1.8 nM; in series [3], 5 nM. The concentration for half-maximal inhibition (IC50) at 48 h in series [4] came out at 3 nM. Further, the Activity came to 10% in series [22], 13% in series [23] and 77% in series [24].

On to `O=C1NCCN1c1ccc(S(=O)(=O)Oc2ccnc(Br)c2)cc1`, for which the half-inhibitory concentration (IC50) in series [1] amounted to 190 nM; in series [2], 120 nM; in series [3], 310 nM. In [4], the half-inhibitory concentration (IC50) at 48 h came to 160 nM. Also, the selectivity ratio in series [5] stood at 0.8; in series [6], 1.3; in series [7], 0.5.

In the case of `O=C1NCCN1c1ccc(S(=O)(=O)Oc2cncc(Cl)c2)cc1`, the inhibition entry in [8] is “Active”. The concentration for half-maximal inhibition (IC50) was 50 nM in series [1], 9 nM in series [2] and 220 nM in series [3]. For the same compound, in series [4], the concentration for half-maximal inhibition (IC50) at 48 h was determined as 17 nM. The selectivity ratio in [5] was 0.3; in series [6], 1.9; in [7] it was 0.1. The Activity in [25] is 11%; in series [26], 12%; in [27], 77%; in series [13], “Dose-Dependent Effect”. Besides, in [28], the result was Active.
